Measured values from ChEMBL document CHEMBL1129146, “Pentamidine congeners. 4. DNA binding affinity and anti-Pneumocystis carinii activity of butamidine analogues” (1996).

Experiments:
[1] = system: Nucleic Acid; assay: Delta Tm (thermal denaturation) in sonicated calf thymus DNA; assay type: nucleic-acid assay; parameters: unit not given here; conditions: Bos taurus
[2] = system: Pneumocystis carinii; assay: Compound was tested for anti-P. carinii activity in vitro.; assay type: functional
[3] = Delta Tm (thermal denaturation) in sonicated poly(dA).poly(dT) homopolymer

| Structure (SMILES) | ΔTm [1] | ΔTm [3] | Activity [2] [µM] |
| --- | --- | --- | --- |
| N=C(N)c1ccc(OC[C@@H](O)[C@@H](O)COc2ccc(C(=N)N)cc2)cc1 |  |  | 78 |
| N=C(N)c1ccc(OCCCCCOc2ccc(C(=N)N)cc2)cc1 [PENTAMIDINE] | 10 | 22.9 | 27 |
| N=C(N)c1ccc(OCCCCOc2ccc(C(=N)N)cc2)cc1 | 8.3 | 20.4 | 39 |
| COc1cc(Cc2cnc(N)nc2N)cc(OC)c1OC.Cc1cc(NS(=O)(=O)c2ccc(N)cc2)no1 [CO-TRIMOXAZOLE] |  |  | 17 |

Continued, in another order:

| ΔTm [1] | ΔTm [3] | Structure (SMILES) | Activity [2] [µM] |
| --- | --- | --- | --- |
| 7.7 | 23.3 | N=C(N)c1ccc(OC/C=C/COc2ccc(C(=N)N)cc2)cc1 | 19 |
| 9.3 | 28.9 | C(=C/COc1ccc(C2=NCCN2)cc1)/COc1ccc(C2=NCCN2)cc1 | 25 |
| 7.9 | 20.8 | C(=C\COc1ccc(C2=NCCN2)cc1)/COc1ccc(C2=NCCN2)cc1 | 42 |
| 11 | 31.5 | N=C(N)c1ccc(OC/C=C\COc2ccc(C(=N)N)cc2)cc1 | 9 |
